# Measurements published in PMC10376326, “Novel Acylselenourea Derivatives: Dual Molecules with Anticancer and Radical Scavenging Activity” (Antioxidants, 2023).
# System: DU-145 (prostate) cancer cell line
# Assay: MTT cell viability assay, DU-145
# Format: cell-based, human
# Conditions: Homo sapiens, DU-145, 48 h, read-out: Cell growth %, DU-145, 10 µM, 48 h, MTT
# Experimental: (§1) Cell lines were purchased from the American Type Culture Collection (ATCC). Cell lines MDA-MB-231, HTB-54, DU-145, and BEAS-2B were cultured in RPMI 1640 medium (Gibco, Thermo Fisher Scientific, Gaithersburg, MD, USA) supplemented with 10% fetal bovine serum (FBS; Gibco), 100 units/mL penicillin, and […] streptomycin (Gibco). HT-29 cell line was grown in McCoy’s 5A (Gibco), 10% FBS, 100 units/mL penicillin, and 100 μg/mL streptomycin. Cells were maintained at 37 °C and 5% CO2. The culture medium was changed every three days.
# (§2) The cell viability of each compound was measured by MTT colorimetric assay. Each compound was dissolved in DMSO at a concentration of 0.01 M. Each compound was tested at two different concentrations (10 and 50 µM) in MDA-MB-231 (breast), HTB-54 (lung), DU-145 (prostate), and HT-29 (colon) human cancer cell lines. Serial dilutions were prepared with supplemented culture medium. […] IC50 and selectivity indexes (SI) were determined.
# (§3) Briefly, 1 × 10^4 tumor cells per well were grown in 96-well plates for 24 h. Then, these cells were incubated for 48 h with either DMSO (control) or a different concentration of each of the tested compounds. The cell viability was determined by adding 20 μL of MTT two hours and a half before the termination point. After this time, the culture medium was removed. The resulting formazan crystals were dissolved in 50 μL of DMSO, and the absorbance was measured at 570 nm. Results are expressed as % cell growth. The data were obtained from at least three independent experiments performed in quadruplicate.
row,SMILES,activity at 10 µM [%]
1,"C=CCNC(=[Se])NC(=O)c1cccs1 [Compound 2.II, N-(allylcarbamoselenoyl)thiophene-2-carboxamide]",63.4 ± 5.6

# Same assay, conditions: Homo sapiens, DU-145, 48 h, read-out: Cell growth %, DU-145, 50 µM, 48 h, MTT
row,SMILES,activity at 50 µM [%]
1,"C=CCNC(=[Se])NC(=O)c1cccs1 [Compound 2.II, N-(allylcarbamoselenoyl)thiophene-2-carboxamide]",7.33 ± 4.6

# System: MDA-MB-231 (breast) cancer cell line
# Assay: MTT cell viability assay, MDA-MB-231
# Format: cell-based, human
# Conditions: Homo sapiens, MDA-MB-231, 48 h, read-out: Cell growth %, MDA-MB-231, 10 µM, 48 h, MTT
# Experimental: as §1, §2, §3
row,SMILES,activity at 10 µM [%]
1,"C=CCNC(=[Se])NC(=O)c1cccs1 [Compound 2.II, N-(allylcarbamoselenoyl)thiophene-2-carboxamide]",79.9 ± 9.6

# Same assay, conditions: Homo sapiens, MDA-MB-231, 48 h, read-out: Cell growth %, MDA-MB-231, 50 µM, 48 h, MTT
row,SMILES,activity at 50 µM [%]
1,"C=CCNC(=[Se])NC(=O)c1cccs1 [Compound 2.II, N-(allylcarbamoselenoyl)thiophene-2-carboxamide]",11.1 ± 5.9

# System: HT-29 (colon) cancer cell line
# Assay: MTT cell viability assay, HT-29
# Format: cell-based
# Conditions: Homo sapiens, HT-29, 48 h, HT-29, 10 µM, read-out: Cell growth %
# Experimental: as §1, §2, §3
row,SMILES,activity at 10 µM [%]
1,"C=CCNC(=[Se])NC(=O)c1cccs1 [Compound 2.II, N-(allylcarbamoselenoyl)thiophene-2-carboxamide]",107 ± 16.2

# Same assay, conditions: Homo sapiens, HT-29, 48 h, HT-29, 50 µM, read-out: Cell growth %
row,SMILES,activity at 50 µM [%]
1,"C=CCNC(=[Se])NC(=O)c1cccs1 [Compound 2.II, N-(allylcarbamoselenoyl)thiophene-2-carboxamide]",26.2 ± 5.1

# System: HTB-54 (lung) cancer cell line
# Assay: MTT cell viability assay, HTB-54
# Format: cell-based, human
# Conditions: Homo sapiens, HTB-54, 48 h, read-out: Cell growth %, HTB-54, 10 µM, 48 h, MTT
# Experimental: as §1, §2, §3
row,SMILES,activity at 10 µM [%]
1,"C=CCNC(=[Se])NC(=O)c1cccs1 [Compound 2.II, N-(allylcarbamoselenoyl)thiophene-2-carboxamide]",35.9 ± 12.1

# Same assay, conditions: Homo sapiens, HTB-54, 48 h, read-out: Cell growth %, HTB-54, 50 µM, 48 h, MTT
row,SMILES,activity at 50 µM [%]
1,"C=CCNC(=[Se])NC(=O)c1cccs1 [Compound 2.II, N-(allylcarbamoselenoyl)thiophene-2-carboxamide]",8.52 ± 4.8

# System: DU-145 cells
# Assay: Protective effects against H2O2-induced oxidative stress in DU-145 cells (MTT)
# Format: cell-based, human
# Conditions: cells without compounds, only treated with 200 µM H2O2, DU-145, 12 h
# Experimental: Cells were treated with the selected compounds and then oxidative damage to DU-145 cells was induced using different concentrations of H2O2 (200, 250 and 300 µM), and cell viability was assessed by the MTT method. Briefly, 2.5 × 10^4 DU-145 cells per well were added in 96-well plates. After 24 h of incubation, DMSO, 1.I, 2.I, 5.I, 7.II, 10.II, and ascorbic acid were added to each well at two different concentrations (0.0015 mg/mL and 0.0003 mg/mL) and incubated for 1 h. After that, H2O2 was added at the concentrations of 200, 250, and 300 µM, and the cells were incubated for 12 h to induce cell damage. MTT assay was used to measure cell viability. For each treatment, the mean cell viability was calculated from three independent experiments. The DMSO-treated controls were assigned with a cell viability value of 100% (Vcontrol). The results are expressed as a cell growth inhibition % caused by H2O2 and the increased fold of cell survival, as follows: • Cells without compounds, only treated with H2O2: (2) % Cell growth inhibition=Acontrol - Asample/Acontrol × 100
# • Cells treated with compounds and H2O2:
# (3) % Cell growth inhibition=Asample (compound) - Asample (compound+H2O2)/Acontrol × 100
# (4) Increase-fold of cell survival=% cell growth inhibition (H2O2)/% cell growth inhibition (compound+ H2O2)
# The standard error of the mean (SEM) was calculated in at least three independent experiments performed in quadruplicates.
row,SMILES,Cell growth inhibition (%)
1,"OO [Compound H2O2, H2O2, reference compound]",36.9 ± 6.9

# Same assay, conditions: cells without compounds, only treated with 250 µM H2O2, DU-145, 12 h
row,SMILES,Cell growth inhibition (%)
1,"OO [Compound H2O2, H2O2, reference compound]",53.4 ± 6.1

# Same assay, conditions: cells without compounds, only treated with 300 µM H2O2, DU-145, 12 h
row,SMILES,Cell growth inhibition (%)
1,"OO [Compound H2O2, H2O2, reference compound]",66.8 ± 6.3

# System: not listed separately
# Assay: DPPH radical scavenging assay
# Format: biochemical
# Conditions: 0.003 mg/mL, 0 min
# Experimental: Different methods are available to quantify the antioxidant capacity of natural or novel molecules. Notable among these are the ABTS^•+ and DPPH^• methods, which measure the quenching efficiency in vitro for known concentrations of preformed radicals. In this work, the DPPH^• colorimetric assay was carried out. Measurements were recorded on a BioTeck PowerWave XS spectrophotometer (BioTeck Instruments, Winooski, VT, USA) and data were collected using KCJunior v.1.41. software (BioTeck Instruments, Winooski, VT, USA). Compounds with potent activity were selected to further determine their protective effect against ROS-induced cell death caused by H2O2.
# DPPH colorimetric assay was performed to determine the in vitro radical scavenging activity of the acylselenourea derivatives. DPPH assay was performed as described by Svinyarov. For each acylselenourea, a stock solution of 1 mg/mL in dimethyl sulfoxide (DMSO) was made, and these solutions were used to prepare the different concentrations employed in the assay. The compounds were tested at two different concentrations (0.003 and 0.03 mg/mL). Intermediate solutions were prepared in methanol and a volume of 100 µL of each was added to each well of the plate. Then, 100 µL of DPPH^• (previously prepared at a concentration of 0.04 mg/mL in methanol and preserved in the dark) was added to the previous methanolic acylselenourea solutions. The discoloration of the purple radical to the yellow reduced form was followed at 517 nm at different time points (0, 5, 15, 30, 60, 90, and 120 min). Ascorbic acid and trolox were used as positive controls. All measurements were carried out in triplicate. Results are expressed as the percentage of the radicals scavenged, calculated using the following formula: (1) % DPPH radical scavenging=Acontrol - Asample/Acontrol × 100 where Acontrol refers to the absorbance of the negative control and Asample refers to the absorbance of the tested compounds. Results are expressed as percentage of DPPH radical scavenging ± SD.
row,SMILES,inhibition [%]
1,"C=CCNC(=[Se])NC(=O)c1cccs1 [Compound 2.II, N-(allylcarbamoselenoyl)thiophene-2-carboxamide]",0

# Same assay, conditions: 0.003 mg/mL, 5 min
row,SMILES,inhibition [%]
1,"C=CCNC(=[Se])NC(=O)c1cccs1 [Compound 2.II, N-(allylcarbamoselenoyl)thiophene-2-carboxamide]",6.4 ± 1.1

# Same assay, conditions: 0.003 mg/mL, 15 min
row,SMILES,inhibition [%]
1,"C=CCNC(=[Se])NC(=O)c1cccs1 [Compound 2.II, N-(allylcarbamoselenoyl)thiophene-2-carboxamide]",10.4 ± 1.2

# Same assay, conditions: 0.003 mg/mL, 30 min
row,SMILES,inhibition [%]
1,"C=CCNC(=[Se])NC(=O)c1cccs1 [Compound 2.II, N-(allylcarbamoselenoyl)thiophene-2-carboxamide]",13 ± 1.2

# Same assay, conditions: 0.003 mg/mL, 60 min
row,SMILES,inhibition [%]
1,"C=CCNC(=[Se])NC(=O)c1cccs1 [Compound 2.II, N-(allylcarbamoselenoyl)thiophene-2-carboxamide]",15.2 ± 1.2

# Same assay, conditions: 0.003 mg/mL, 90 min
row,SMILES,inhibition [%]
1,"C=CCNC(=[Se])NC(=O)c1cccs1 [Compound 2.II, N-(allylcarbamoselenoyl)thiophene-2-carboxamide]",16 ± 1.2

# Same assay, conditions: 0.003 mg/mL, 120 min
row,SMILES,inhibition [%]
1,"C=CCNC(=[Se])NC(=O)c1cccs1 [Compound 2.II, N-(allylcarbamoselenoyl)thiophene-2-carboxamide]",16.3 ± 1.2

# Same assay, conditions: 0.03 mg/mL
row,SMILES,time to reach the highest DPPH inhibition [min]
1,"C=CCNC(=[Se])NC(=O)c1cccs1 [Compound 2.II, N-(allylcarbamoselenoyl)thiophene-2-carboxamide]",60

# Same assay, conditions: 0.03 mg/mL, 0 min
row,SMILES,inhibition [%]
1,"C=CCNC(=[Se])NC(=O)c1cccs1 [Compound 2.II, N-(allylcarbamoselenoyl)thiophene-2-carboxamide]",24.4 ± 3

# Same assay, conditions: 0.03 mg/mL, 5 min
row,SMILES,inhibition [%]
1,"C=CCNC(=[Se])NC(=O)c1cccs1 [Compound 2.II, N-(allylcarbamoselenoyl)thiophene-2-carboxamide]",60.7 ± 2.5

# Same assay, conditions: 0.03 mg/mL, 15 min
row,SMILES,inhibition [%]
1,"C=CCNC(=[Se])NC(=O)c1cccs1 [Compound 2.II, N-(allylcarbamoselenoyl)thiophene-2-carboxamide]",75.8 ± 3.5

# Same assay, conditions: 0.03 mg/mL, 30 min
row,SMILES,inhibition [%]
1,"C=CCNC(=[Se])NC(=O)c1cccs1 [Compound 2.II, N-(allylcarbamoselenoyl)thiophene-2-carboxamide]",87.6 ± 4

# Same assay, conditions: 0.03 mg/mL, 60 min
row,SMILES,inhibition [%]
1,"C=CCNC(=[Se])NC(=O)c1cccs1 [Compound 2.II, N-(allylcarbamoselenoyl)thiophene-2-carboxamide]",96.7 ± 0.7

# Same assay, conditions: acylselenourea analogs, 0.03 mg/mL, 90 min
row,SMILES,DPPH Inhibitory% [%]
1,"C=CCNC(=[Se])NC(=O)c1cccs1 [Compound 2.II, N-(allylcarbamoselenoyl)thiophene-2-carboxamide]",97.3 ± 0.8
